Publication PMC10340464, “Identification of a Novel SSTR3 Full Agonist for the Treatment of Nonfunctioning Pituitary Adenomas” (Cancers, 2023)

Columns and labels:
SSTR2-tGFP = assay: Receptor internalization in U2OS-transfected cells (SSTR2-tGFP); type: cell-based, human; settings: 3 h, high-content imaging, n = 3, method: percentage of activity relative to SST28 10^−6 M
Protocol: (§1) Compounds were tested at five concentrations (10^−5, 10^−6, 10^−7, 10^−8, 10^−9 M) in comparison to untreated cells.
(§2) SST agonists were added to U2OS recombinant cell lines in OptiMeM medium (Life technologies 51985-034, Monza, Italy) for 3 h (SSTR2, SSTR3) or 7 h (SSTR5) (n = 3). After formaldehyde fixation, nuclei were stained using DAPI (2 µg/mL), and the fluorescence was measured with BD Pathway 855 High-Content Bioimager from Becton Dickinson. The receptor internalization was calculated using AttoVision 1.6 Software. Approximately 500 cells per field were analyzed. […]
(§3) (Invitrogen, Carlsbad, CA). Stable transfectants were selected in the presence of 500 µg/ml G-418. […]
(§4) % picric acid in phosphate buﬀer (pH 6.9) for 30 minutes at room temperature (RT). […]
(§5) 3.2. U2OS human cell lines transfected with human receptors (SSTR2-tGFP, SSTR3-tGFP,
(§6) Compounds were tested at ﬁve d iﬀerent concentrations (10-5, 10-6, 10-7, 10-8, 10^-9 M) in comparison to untreated cells.
(§7) U2OS recombinant cell lines were obtained from Innoprot (Derio, Spain). […] Nuclei were stained using DAPI (2 μg/ml) and the ﬂuorescence was measured using a BD Pathway 855 High-Content Bioimager from Becton Dickinson. The receptor internalization was calculated using AttoVision Software. […]
(§8) Agonist activity of test compounds was calculated relatively to positive control

SSTR3-tGFP = assay: Receptor internalization in U2OS-transfected cells (SSTR3-tGFP); type: cell-based, human; settings: 3 h, high-content imaging, n = 3, method: percentage of activity relative to SST28 10^−6 M
Protocol: as §1, §2, §3, §4, §5, §6, §7, §8

SSTR2 = molecular target: T1, SSTR2 (Homo sapiens, UniProt P30874); assay: SSTR2 phosphorylation, Western blot with phosphosite-specific antibodies, HEK293-transfected; type: cell-based; settings: HEK293 stably expressing SSTR2, agonist 5 min 37 °C
T1 construct: expressed in transfected cells
T1 sequence (P30874 whole entry): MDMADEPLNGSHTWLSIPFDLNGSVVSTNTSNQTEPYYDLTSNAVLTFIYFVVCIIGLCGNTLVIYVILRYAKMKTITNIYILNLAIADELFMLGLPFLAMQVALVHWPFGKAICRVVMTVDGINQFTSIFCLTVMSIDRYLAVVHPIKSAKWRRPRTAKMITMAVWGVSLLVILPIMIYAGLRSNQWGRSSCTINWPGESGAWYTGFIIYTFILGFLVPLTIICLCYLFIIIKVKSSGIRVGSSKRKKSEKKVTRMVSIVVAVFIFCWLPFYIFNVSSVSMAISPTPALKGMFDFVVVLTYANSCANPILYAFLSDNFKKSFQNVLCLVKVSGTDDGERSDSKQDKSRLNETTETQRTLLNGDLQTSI
Protocol: Western blot analysis was performed as previously described.
Next, the activation of human SSTRs induced by SSAs was tested by Western blot using phosphosite-specific antibodies directed against the following residues: S341/pS343 for SSTR2; S337/T341 for SSTR3; T333 for SSTR5 [31].
4.1. Western blot analysis
Western blot analysis was performed as previously described.7–9 Brieﬂy, HEK293 cells stably expressing the human somatostatin receptors were seeded onto poly-L-lysine-coated 60 mm dishes and grown to 90 % confluency. […]
PierceTM HA epitope tag antibody beads (Thermo Scientific, Rockford, USA) were used to enrich HA-tagged somatostatin receptors or wheat germ lectin-agarose beads for no-tagged somatostatin receptors. To elute proteins from the beads, the samples were incubated in SDS sample buffer for 20 min at 60°C. Supernatants were separated from the beads, loaded on 8% SDS polyacrylamide gels and immunoblotted onto nitrocellulose membranes afterwards. After blocking, membranes were incubated with phosphorylation state-speciﬁc somatostatin receptor antibodies: pS337/pT341-SST3 (7TM0357A), […]
Antibodies GmbH, Jena, Germany) at a dilution of 1:1000 at 4°C overnight. Membranes were incubated in HRP-linked secondary antibody for 2 hours, followed by detection using a chemiluminescence system (90 mM p-coumaric-acid, 250 mM luminol, 30% […]
according to the manufacturer’s instructions.

δ (DOP) (h) = assay: Single-dose binding assay on δ opioid receptor; design: species or system human; settings: 10^−5 M
κ (KOP) = assay: Single-dose binding assay on κ opioid receptor; settings: 10^−5 M
µ (MOP) (h) = assay: Single-dose binding assay on µ opioid receptor; design: species or system human; settings: 10^−5 M
NOP (ORL1) (h) = assay: Single-dose binding assay on NOP receptor; design: species or system human; settings: 10^−5 M
HA-SSTR3 = assay: SSTR3 internalization in HEK293 cells, confocal microscopy; type: cell-based, human; settings: 1 µM agonist, 30 min 37 °C
Protocol: (§9) HEK293 cells obtained from DSMZ (Braunschweig, Germany) were transfected with plasmid encoding […] HA-tagged SSTR2, SSTR3 or SSTR5 receptors.
(§10) HEK293 cells stably expressing HA-tagged hSSTR cultures were preincubated with anti-HA antibody for 2 h at 4 °C and then exposed to 1 µM agonist for 30 min at 37 °C before fixing and further labeling with Alexa488-conjugated secondary antibody. After mounting with Roti®-MountFluorCare DAPI, cultures were examined using a Zeiss LSM510 META laser scanning confocal microscope (Zeiss, Jena, Germany) (see Supplementary Materials for details).
(§11) GH produced by primary cultures was tested by ELISA assay using Rat Growth Hormone Biotrak Enzyme immunoassay Mouse/Rat Growth ELISA (DSL-10-72100) or Rat/Mouse Growth Hormone ELISA (Millipore EZRMGH-45K) diluting supernatants 1:20, according to manufacturer’s instructions. […]
as §7, §8

HA-SSTR2 = assay: SSTR2 internalization in HEK293 cells, confocal microscopy; type: cell-based, human; settings: 1 µM agonist, 30 min 37 °C
Protocol: as §9, §10, §11, §7, §8

HA-tagged SSTR5 = assay: SSTR5 internalization in HEK293 cells, confocal microscopy; type: cell-based, human; settings: 1 µM agonist, 30 min 37 °C
Protocol: as §9, §10, §11, §7, §8

[1] = at high doses; ref manuscript in preparation; cited from earlier work
Excerpt: One important aspect relates to safety margins. Hyperglycemia is a common side effect of SSTR panagonists such as Pasireotide. […] What remains to be ascertained clinically is whether the higher agonistic activity on SSTR3 may allow us to define a dose at which full receptor engagement is observed in the absence of significant hyperglycemia.

COc1cc2cccc(OC)c2cc1C[C@H]1NC(=O)[C@H](Cc2ccc(O)cc2)NC(=O)[C@@H]2C[C@@H](OC(=O)NCCN)CN2C(=O)[C@H](Cc2ccccc2)NC(=O)[C@H](Cc2ccc(OCc3ccccc3)cc2)NC(=O)[C@H](CCCCN)NC1=O [ITF2984, Cyclo[Tyr(Bn)-Phe-Pro(4-OCONH(CH2)2NH2)-Tyr-3,8-diMeONal-Lys]]
Receptor internalization in U2OS-transfected cells, SSTR2, at 10^−5 M (SSTR2-tGFP; 10^−5 M): 37.3
Receptor internalization in U2OS-transfected cells, SSTR2, at 10^−6 M (value in brackets) (SSTR2-tGFP; 10^−6 M): 35.9
Receptor internalization in U2OS-transfected cells, SSTR3, at 10^−5 M (SSTR3-tGFP; 10^−5 M): 61.1
Receptor internalization in U2OS-transfected cells, SSTR3, at 10^−6 M (value in brackets) (SSTR3-tGFP; 10^−6 M): 62.5
Phosphorylation SSTR sites (HEK293-transfected): SSTR2—PS341/S343 (SSTR2): ++
Percentage of inhibition of opioid receptor δ (DOP) (h) (agonist) (δ (DOP) (h)): 79%
Percentage of inhibition of opioid receptor κ (KOP) (agonist) (κ (KOP)): 97%
Percentage of inhibition of opioid receptor µ (MOP) (h) (agonist) (µ (MOP) (h)): 97%
Percentage of inhibition of opioid receptor NOP (ORL1) (h) (agonist) (NOP (ORL1) (h)): 61%
internalization of SSTR3 in transfected HEK293 cells (HA-SSTR3): strong internalization
internalization of SSTR2 in transfected HEK293 cells (HA-SSTR2): partial internalization
internalization of SSTR5 in transfected HEK293 cells (HA-tagged SSTR5): partial internalization
glycemia in clinical studies [1]: increased glycemia
